Assay results from PubChem BioAssay (NCI).
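GI50: concentration for 50% inhibition of growth. TGI: total growth inhibition.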

Columns and labels:
Experiment in all cases: NCI anticancer screen, dose series, 384-well format
OVCAR-5 ovarian = test system: OVCAR-5 ovarian
DU-145 prostate = test system: DU-145 prostate
RXF 393 renal = test system: RXF 393 renal
SK-OV-3 ovarian = test system: SK-OV-3 ovarian
A549 NSCLC = test system: A549 NSCLC
K-562 leukemia = test system: K-562 leukemia
NCI-H460 NSCLC = test system: NCI-H460 NSCLC
SF-539 CNS = test system: SF-539 CNS
UACC-257 melanoma = test system: UACC-257 melanoma
MALME-3M melanoma = test system: MALME-3M melanoma
NCI-H23 lung = test system: NCI-H23 lung
SNB-75 CNS = test system: SNB-75 CNS
HOP-62 NSCLC = test system: HOP-62 NSCLC
OVCAR-8 ovarian = test system: OVCAR-8 ovarian
ACHN renal = test system: ACHN renal
TK-10 renal = test system: TK-10 renal
CAKI-1 renal = test system: CAKI-1 renal
NCI-H322M lung = test system: NCI-H322M lung
UO-31 renal = test system: UO-31 renal
A498 renal = test system: A498 renal
HT29 colon = test system: HT29 colon
UACC-62 melanoma = test system: UACC-62 melanoma
COLO 205 colon = test system: COLO 205 colon
M14 melanoma = test system: M14 melanoma
MDA-MB-435 melanoma = test system: MDA-MB-435 melanoma
CCRF-CEM leukemia = test system: CCRF-CEM leukemia
RPMI-8226 leukemia = test system: RPMI-8226 leukemia
KM12 colon = test system: KM12 colon
MDA-MB-468 breast = test system: MDA-MB-468 breast
MDA-MB-231 breast = test system: MDA-MB-231 breast
EKVX NSCLC = test system: EKVX NSCLC
SF-295 CNS = test system: SF-295 CNS
SK-MEL-2 melanoma = test system: SK-MEL-2 melanoma
MCF7 breast = test system: MCF7 breast
HCT-15 colon = test system: HCT-15 colon
SF-268 CNS = test system: SF-268 CNS
SK-MEL-28 melanoma = test system: SK-MEL-28 melanoma
IGROV1 ovarian = test system: IGROV1 ovarian
LOX IMVI melanoma = test system: LOX IMVI melanoma
U251 glioblastoma = test system: U251 glioblastoma
SK-MEL-5 melanoma = test system: SK-MEL-5 melanoma
HOP-92 NSCLC = test system: HOP-92 NSCLC
SN12C renal = test system: SN12C renal
SNB-19 CNS = test system: SNB-19 CNS
OVCAR-3 ovarian = test system: OVCAR-3 ovarian
SW-620 colon = test system: SW-620 colon
HCT-116 colon = test system: HCT-116 colon

## C[C@@H]1CN(C(=O)c2ccc(NC(=O)c3cc(O[C@H](C)c4c(Cl)ccc(F)c4Cl)c(N)nn3)cc2)C[C@H](C)N1
OVCAR-5 ovarian
  GI50: 1.54 µM
  TGI: 4.7 µM
DU-145 prostate
  GI50: 3.89 µM
  TGI: 14.5 µM
RXF 393 renal
  GI50: 1.74 µM
  TGI: 3.27 µM
SK-OV-3 ovarian
  GI50: 5.26 µM
  TGI: 16.2 µM
A549 NSCLC
  GI50: 1.45 µM
  TGI: 5 µM
K-562 leukemia
  GI50: 0.152 µM
  TGI: 0.319 µM
NCI-H460 NSCLC
  GI50: 1 µM
  TGI: 3.73 µM
SF-539 CNS
  GI50: 2.02 µM
  TGI: 3.99 µM
UACC-257 melanoma
  GI50: 1.69 µM
  TGI: 3.07 µM
MALME-3M melanoma
  GI50: 1.44 µM
  TGI: 3.08 µM
NCI-H23 lung
  GI50: 0.642 µM
  TGI: 3.76 µM
SNB-75 CNS
  GI50: 2.21 µM
  TGI: 4.14 µM
HOP-62 NSCLC
  GI50: 2.42 µM
  TGI: 7.03 µM
OVCAR-8 ovarian
  GI50: 3.44 µM
  TGI: 10.3 µM
ACHN renal
  GI50: 3.05 µM
  TGI: 11.1 µM
TK-10 renal
  GI50: 3.5 µM
  TGI: 10.3 µM
CAKI-1 renal
  GI50: 2.16 µM
  TGI: 5.69 µM
NCI-H322M lung
  GI50: 5.08 µM
  TGI: 16.1 µM
UO-31 renal
  GI50: 3.53 µM
  TGI: 12.4 µM
A498 renal
  GI50: 2.04 µM
  TGI: 3.88 µM
HT29 colon
  GI50: 1.22 µM
  TGI: 2.59 µM
UACC-62 melanoma
  GI50: 1.34 µM
  TGI: 2.89 µM
COLO 205 colon
  GI50: 1.33 µM
  TGI: 3.94 µM
M14 melanoma
  GI50: 2.47 µM
  TGI: 6.48 µM
MDA-MB-435 melanoma
  GI50: 1.61 µM
  TGI: 6.93 µM
CCRF-CEM leukemia
  GI50: 0.395 µM
  TGI: 1.01 µM
RPMI-8226 leukemia
  GI50: 0.943 µM
  TGI: 2.49 µM
KM12 colon
  GI50: 0.0407 µM
  TGI: 5.37 µM
MDA-MB-468 breast
  GI50: 1.9 µM
  TGI: 3.7 µM
MDA-MB-231 breast
  GI50: 1.74 µM
  TGI: 5.52 µM
EKVX NSCLC
  GI50: 1.52 µM
  TGI: 5.93 µM
SF-295 CNS
  GI50: 1.72 µM
  TGI: 5.81 µM
SK-MEL-2 melanoma
  GI50: 1.77 µM
  TGI: 4.27 µM
MCF7 breast
  GI50: 0.845 µM
  TGI: 4.77 µM
HCT-15 colon
  GI50: 2.46 µM
  TGI: 6.88 µM
SF-268 CNS
  GI50: 1.31 µM
  TGI: 3.77 µM
SK-MEL-28 melanoma
  GI50: 2.82 µM
  TGI: 7.32 µM
IGROV1 ovarian
  GI50: 2.36 µM
  TGI: 10.2 µM
LOX IMVI melanoma
  GI50: 1.26 µM
  TGI: 2.52 µM
U251 glioblastoma
  GI50: 2 µM
  TGI: 5.25 µM
SK-MEL-5 melanoma
  GI50: 1.53 µM
  TGI: 3.48 µM
HOP-92 NSCLC
  GI50: 0.66 µM
  TGI: 2.42 µM
SN12C renal
  GI50: 1.82 µM
  TGI: 11.7 µM
SNB-19 CNS
  GI50: 4.02 µM
  TGI: 13.5 µM
OVCAR-3 ovarian
  GI50: 2.75 µM
  TGI: 7.2 µM
SW-620 colon
  GI50: 1.69 µM
  TGI: 3.48 µM
HCT-116 colon
  GI50: 1.41 µM
  TGI: 4.34 µM

## O=C1CC(c2ccc(N3CCOCC3)cc2)(c2ccsc2)NC(=O)C1Sc1ccccc1Cl (stereo not drawn)
OVCAR-5 ovarian
  GI50: 67.7 µM
  TGI: > 100 µM
DU-145 prostate
  GI50: 53.9 µM
  TGI: > 100 µM
RXF 393 renal
  GI50: 2.58 µM
  TGI: 7.47 µM
SK-OV-3 ovarian
  GI50: > 85.3 µM
  TGI: > 100 µM
A549 NSCLC
  GI50: > 80.4 µM
  TGI: > 100 µM
K-562 leukemia
  GI50: 3.97 µM
  TGI: > 100 µM
NCI-H460 NSCLC
  GI50: 9.07 µM
  TGI: 98.5 µM
SF-539 CNS
  GI50: 23.3 µM
  TGI: > 100 µM
UACC-257 melanoma
  GI50: > 100 µM
  TGI: > 100 µM
MALME-3M melanoma
  GI50: > 51.2 µM
  TGI: > 100 µM
NCI-H23 lung
  GI50: > 95.8 µM
  TGI: > 100 µM
SNB-75 CNS
  GI50: > 100 µM
  TGI: > 100 µM
HOP-62 NSCLC
  GI50: 13.6 µM
  TGI: > 100 µM
OVCAR-8 ovarian
  GI50: 3.45 µM
  TGI: 18.2 µM
ACHN renal
  GI50: 33 µM
  TGI: 98.7 µM
TK-10 renal
  GI50: 75.9 µM
  TGI: > 100 µM
CAKI-1 renal
  GI50: 52.7 µM
  TGI: > 100 µM
NCI-H322M lung
  GI50: > 100 µM
  TGI: > 100 µM
UO-31 renal
  GI50: 33.7 µM
  TGI: > 100 µM
A498 renal
  GI50: 18.5 µM
  TGI: > 88.7 µM
HT29 colon
  GI50: 62.7 µM
  TGI: > 100 µM
UACC-62 melanoma
  GI50: 12.7 µM
  TGI: > 100 µM
COLO 205 colon
  GI50: > 100 µM
  TGI: > 100 µM
M14 melanoma
  GI50: 53.1 µM
  TGI: > 100 µM
MDA-MB-435 melanoma
  GI50: > 100 µM
  TGI: > 100 µM
CCRF-CEM leukemia
  GI50: 3.39 µM
  TGI: > 21.9 µM
RPMI-8226 leukemia
  GI50: 10.5 µM
  TGI: 41.2 µM
KM12 colon
  GI50: > 57.6 µM
  TGI: > 100 µM
MDA-MB-468 breast
  GI50: > 100 µM
  TGI: > 100 µM
MDA-MB-231 breast
  GI50: 13.9 µM
  TGI: > 100 µM
EKVX NSCLC
  GI50: 98.9 µM
  TGI: > 100 µM
SF-295 CNS
  GI50: 35.7 µM
  TGI: > 100 µM
SK-MEL-2 melanoma
  GI50: > 56.1 µM
  TGI: > 100 µM
MCF7 breast
  GI50: > 73.7 µM
  TGI: > 100 µM
HCT-15 colon
  GI50: 63 µM
  TGI: > 100 µM
SF-268 CNS
  GI50: 51.2 µM
  TGI: > 100 µM
SK-MEL-28 melanoma
  GI50: 66.7 µM
  TGI: > 100 µM
IGROV1 ovarian
  GI50: 46.5 µM
  TGI: > 100 µM
LOX IMVI melanoma
  GI50: 35.9 µM
  TGI: > 100 µM
U251 glioblastoma
  GI50: 5.73 µM
  TGI: 65.7 µM
SK-MEL-5 melanoma
  GI50: > 100 µM
  TGI: > 100 µM
HOP-92 NSCLC
  GI50: 3.34 µM
  TGI: 18.7 µM
SN12C renal
  GI50: 4.53 µM
  TGI: 23.4 µM
SNB-19 CNS
  GI50: 16.9 µM
  TGI: 63.8 µM
OVCAR-3 ovarian
  GI50: 34.2 µM
  TGI: > 100 µM
SW-620 colon
  GI50: 16.7 µM
  TGI: > 51.8 µM
HCT-116 colon
  GI50: 36.8 µM
  TGI: > 100 µM
